The values below come from patent US20250255959A1, “A SYSTEM FOR DRUG-INDUCIBLE EXPRESSION OF A POLYNUCLEOTIDE” (Miltenyi Biotec B.V. & Co. KG, priority 2022, published 2025).

Data set [1] deals with anti-CD20 CAR expression in primary T cells. In words: Induction of anti-CD20 CAR expression in transduced primary T cells, flow cytometry. In kind it is cell-based, human. The following applies: 0-250 nM 4-OHT, 40 h. Here is the method: Lentiviral particles encoding for the different drug-inducible cassettes were manufactured as described in example 1.2. Drug-inducible T cells were generated as described in example 1.3. 1E4 LNGFR positive drug-inducible T cells were seeded in 100 μL TexMACS medium (Miltenyi Biotec) supplemented with IL-7 (Miltenyi Biotec) and IL-15 (Miltenyi Biotec) in a 96-round bottom well plate. Anti-CD20 CAR expression was induced by the addition of different concentrations of 4-OHT (0-250 nM, Sigma-Aldrich) in 100 μL μL TexMACS medium (Miltenyi Biotec) supplemented with IL-7 (Miltenyi Biotec) and IL-15 (Miltenyi Biotec) to each well. Untransduced T cells constitute the negative control. T cells that 10 constitutively express an anti-CD20 CAR (“direct CAR”) represent the positive control. Cells were incubated at 37° C. and 5% CO2. T cells were analyzed 40h post induction for anti-CD20 CAR expression by flow cytometry using anti-CD20 CAR detection reagent-PE. […]
Staining was performed for 10 min at 4° C. followed by two successive washing steps with 200 L PEB (300 g, 5 min). […] Frequency of anti-CD20 CAR+inducible T cells (left graph) and mean fluorescence intensity (MFI) of anti-CD20 CAR expression (right graph) was determined and normalized to the expression of the transduction marker LNGFR. […]
On the technique in general: In flow cytometry, cells or beads pass a laser one at a time.

For data set [2] the following is noted: cited from earlier work.

On to 4-hydroxytamoxifen [4-OHT], for which, in data set [1], the “anti-CD20 CAR surface expression (MFI) versus drug dose” value is reported as “steadily increased with the drug dose” and the “induction ratios of anti-CD20 CAR expression versus drug dose” value is “higher drug doses resulting in greater induction ratios”.
`CC/C(=C(\c1ccccc1)c1ccc(OCCN(C)C)cc1)c1ccccc1` [tamoxifen, 2-(4-((1Z)-1,2-diphenyl-1-butenyl)phenoxy)-N,N-dimethylethanamine]: the steady-state plasma levels in data set [2] (after 80 days of daily dosing) was 71 to 183 ng/mL. The “average peak plasma concentration” value in data set [2] (single oral dose of 20 mg) is 40 ng/mL.
